# Reference: patent US20120231482A1, “METHOD, KIT OR DIAGNOSTIC FOR THE DETECTION OF REAGENTS WHICH INDUCE ALTERED CONTRACTILITY” (THE JOHNS HOPKINS UNIVERSITY, priority 2009, published 2012)
# Assays:
# rat cardiac muscle = test: Force and [Ca2+]i measurements in cardiac trabeculae; type: cell-based
# Protocol: Force and [Ca^2+]i Measurements in Cardiac Trabeculae.
# Rat hearts were exposed via midsternotomy after the animals were anesthetized with intraperitoneal injection of pentobarbital (100 mg/kg), and were then rapidly excised and aorta cannulated. The hearts were perfused retrogradely (˜15 ml/min) with high K^+ Krebs-Henseleit (H-K) solution equilibrated with 95% O2 and 5% CO2. Trabeculae were quickly dissected from the right ventricles of the hearts and mounted between a force transducer and a motor arm. The muscles were superfused with K-H solution at a rate of ˜10 ml/min and stimulated at 0.5 Hz. Force was measured using a force transducer system (SI, Germany) and expressed in mN/mm^2. Sarcomere length was measured by laser diffraction. Fura-2 potassium salt was microinjected iontophoretically into one cell and allowed to spread throughout the whole muscle (via gap junctions). The epifluorescence of fura-2 was measured by exciting at 380 and 340 nm. The fluorescent light was collected at 510 nm by a photomultiplier tube (R1527, Hamamatsu). [Ca^2+]i was given by (after subtraction of the autofluorescence): [Ca^2+]i=K′d(R-Rmin)/(Rmax-R), where R is the observed ratio of fluorescence (340/380), K′d is the apparent dissociation constant, Rmax is the ratio of 340 nm/380 nm at saturating [Ca^2+], and Rmin is the ratio of 340 nm/380 nm at zero [Ca^2+]. The values of K′d, Rmax, and Rmin were determined by in vivo calibrations. Tetanization of the trabecula was achieved by addition of ryanodine (1.0 μmol/L) and by increasing the stimulus rate to 10 Hz briefly (˜3 sec) to obtain steady-state force-[Ca^2+] relations. Different levels of tetanized force will be obtained by increasing [Ca^2+] in the perfusate (up to 20-25 mmol/L). The data will be fitted with the Hill equation: F=Fmax[Ca^2+]in/(K1/2n+[Ca^2+]in), where Fmax is the maximal force. K1/2 is [Ca^2+]i at half Fmax, and n is the Hill coefficient.
# 1-nitrosocyclohexylacetate (NCA) is a new and mechanistically unique HNO donor that has been recently synthesized.
# tropomyosin = biological target: T1, tropomyosin (Rattus norvegicus, UniProt P04692); test: Gel shift assay, reducing/non-reducing western blot of cardiac myofibrils; type: biochemical; conditions: non-reducing; lost with 5 mM DTT
# T1 construct: Rat myofibrillar preparations, as described in [7], were obtained from frozen ventricles (Pel Freez Biologicals); tissue Pel Freez Biologicals; host or cells: myofibrils from frozen rat ventricles
# Protocol: FIG. 4. Validation and characterizations of HNO modifications. 1 μg of rat cardiac myofibrils treated with HNO donors or control compounds were separated under reducing or nonreducing conditions and western blots probed for candidate proteins tropomyosin, actin, myosin heavy chain, myosin light chain 1 (n=4). […] Silver stained gel analysis indicated a protein band with […] gel mobility that was lost with DTT.
# FIG. 5. Evaluation of the interaction between actin and tropomyosin with NCA treatment. Purified rabbit skeletal tropomyosin (0.03 μg) and isolated rat cardiac myofibrils (1 μg) were treated with NCA or AS and evaluated by 1D non-reducing western blot probing for tropomyosin (A) and actin (B) (n=3). […] (C) Fluorescent DIGE analysis of samples from A and B independent labeled indicates NCA specific band (green) above purified TM (blue) and below AS treated myofibrils (red) (n=3). (D) MS analysis of the same gel region identified both tropomyosin and actin in non-reduced lane but not with DTT treatment (n=2).
# Gel shift assay. 10 μg of rat myofibrils/treatment were diluted to 0.5 μg/μl in HEN including 0.1% (w/v) SDS and exposed to a treatment for 20 min at 37° C. Samples were diluted to 0.1 ug/ul in 1×LSD sample buffer, treated with 0, 5 or 100 mM DTT and separated by SDS PAGE. Proteins were silver stained or transferred to nitrocellulose and immunoblotted with primary antibodies for tropomyosin sarcomeric (CH1, Sigma-Aldrich Co., St. Louis, Mo., USA), actin (AC-40, Sigma-Aldrich Co., St. Louis, Mo., USA), myosin light chain 1 (MLM527, Abcam, Cambridge, Mass., USA) or myosin heavy chain (3-48, Abcam, Cambridge, Mass., USA). For some silver stained gel bands of interest in-gel digestion was done following the protocol outlined in Shevchenko et al.. Gel slices of interest were excised from the gels cut into 1 mm^3 pieces. Silver stained gel pieces were destained in 1:1(v/v) 30 mM Potassium ferricyanide and 100 mM Sodium thiosulfate and wash three times with ddH2O. Gel pieces were dehydrated in 100% acetonitrile and reswelled in 10 mM DTT and incubated at 55° C. for 1 hour. After the DTT solution was removed, a solution of 55 mM iodoacetimide was added and gel slices were incubated at room temperature protected from light. Gel slices were then washed 3 times with 50% (v/v) ACN, 25 mM (NH4)HCO3 and then fully dehydrated in 100% ACN and dried in a speed vac. Gel pieces were reswelled in a 12.5 ng/μL trypsin (Promega, Madison Wis. USA) solution containing 25 mM (NH4)HCO3 and incubated at 37° C. for >16 hours. Digested peptides were extracted by addition of 5% (v/v) formic acid and incubation for 15 min followed by addition of an equal volume of 100% ACN and 15 min incubation, this step was repeated and the extracts were combined. […]
# [1] = 20˜100 μmol/L, 0.5 mmol/L [Ca2+]o
# [2] = NCA 100 μmol/L, isolated cardiac muscle
# [3] = in the presence of NCA, varied external Ca2+
# T1 sequence (P04692 whole entry): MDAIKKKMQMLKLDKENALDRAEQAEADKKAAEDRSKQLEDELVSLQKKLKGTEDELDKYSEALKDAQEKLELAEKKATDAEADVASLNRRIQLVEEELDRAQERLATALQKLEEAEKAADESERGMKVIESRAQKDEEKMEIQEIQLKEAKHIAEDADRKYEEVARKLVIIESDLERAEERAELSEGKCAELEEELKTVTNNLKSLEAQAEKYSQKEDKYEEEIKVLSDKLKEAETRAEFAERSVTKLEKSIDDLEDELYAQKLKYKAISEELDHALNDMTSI
structure (smiles),measurement,setting,value
"CC(=O)OC1(N=O)CCCCC1 [NCA, 1-nitrosocyclohexylacetate]",diastolic force,rat cardiac muscle; [1],no changes
same,force development,rat cardiac muscle; [1],increases force development in a dose dependent manner
same,Ca2+ transient,rat cardiac muscle; [2],0.39 ± 0.08 µmol/L
same,force,rat cardiac muscle; [2],32.3 ± 4.8 mN/mm²
same,diastolic Ca2+,rat cardiac muscle; dose-response,increased only at high doses
same,amplitude of intracellular Ca2+ transients,rat cardiac muscle; [3],not different from control
same,systolic force at any given external Ca2+,rat cardiac muscle; [3],remained significantly higher
same,Force-frequency relationship,rat cardiac muscle; without rising [Ca2+]i,enhanced
same,tropomyosin molecular weight shift,tropomyosin,higher molecular weight species that was specific for NCA treatment
